Experimental findings from a melting point compilation (Tetko et al.; mined from patent text by program, amines drawn as free bases though some values may be those of a salt) are described below.

Each structure is given as a SMILES string.

Take `CCCCCCOc1ccc(-c2ncc(Br)cn2)cn1`: the melting point (as a rule, the temperature of the solid-liquid transition) was 103 to 106 °C.

In the case of `CON=CCN1C(=O)C(NC(=O)c2cc3ccccc3[nH]2)N=C(c2ccccc2)c2ccccc21` (racemic), the melting point is 169 to 174 °C.

As to `COc1cc(C(=O)O)cc2c1CC(C)O2` (centres undefined), the melting point lay in the range of 180 to 182 °C.

For `CCc1c(O)cc(O)c(C(=O)c2ccccc2)c1CC(=O)N1CCN(c2ccccc2C#N)C(=O)C1`, the melting point lay in the range of 259 to 261 °C.

`Fc1ccc(Nc2ncnc3cnc(NCc4ccccn4)nc23)cc1Cl` gave a melting point of 220 to 222 °C.

In turn, `O=C(O)c1cc(Cl)cc2c1NCCO2` had a melting point of 209 to 210 °C.

`O=C1c2c(-c3ccccc3)cc(CCl)nc2OCCN1Cc1cc(C(F)(F)F)cc(C(F)(F)F)c1` displayed a melting point of 183 to 184 °C.

With `Nc1cc(I)ccc1Nc1cccc(-n2cccn2)c1`, the melting point lay within 134 to 135 °C.

In the case of `Cc1cccc2nc(O)n(C3CCC(=O)NC3=O)c(=O)c12` (centres undefined), the melting point was in the range of 373 to 375 °C.

In turn, `CC(C(=O)CCl)c1cccc(C(=O)c2ccccc2)c1` (centres undefined) gave a melting point of 60 °C.

`CCOC(=O)CC(C(=O)c1ccc(OC2CCN(C(=O)OC(C)(C)C)CC2)cc1)c1ccccn1` (centres undefined) returned a melting point of 118 to 120 °C.

For `Nc1c(Cl)c(Br)cc2[nH]c(=O)c(=O)[nH]c12`, the melting point was greater than 350 °C.

Regarding `COC(=O)C1CCCc2c(-c3ccc(Cl)cc3)nsc2C1` (centres undefined), the melting point was 108 to 109 °C.

`O=C(O)CSONC(=O)c1c(Cl)ccc2cc(Cl)cnc12` gave a melting point of 174 °C.

On to `O=C(O)COC(=O)C=Cc1ccccc1`, for which the melting point is 116 to 121 °C.

Compound `Cc1cccc2nc3sccn3c(=O)c12` came in with a melting point of 148 to 150 °C.

For `Nc1cc(N=c2sc(=S)n3n2CCCC3)c(F)cc1Cl`, the melting point fell in the range of 59 to 61 °C.

Regarding `N#Cc1cc(O)ccc1Br`, the melting point fell in the range of 183 to 184 °C.

`CCCc1c(OCCCOc2ccc3c(c2CCC)OC(CCC(=O)O)CC3)ccc(C(C)=O)c1O` (centres undefined) returned a melting point of 109 to 110 °C.

As for `Cc1ccc(P2(=O)c3ccccc3CN2c2ccccc2)cc1` (centres undefined), the melting point was 180 to 181 °C.

In the case of `CN(C)C1(c2cccc(F)c2)CCC(CC(=O)NCCCc2ccccc2)CC1` (centres undefined), the melting point lay in the range of 119 to 122 °C.

Consider `CC(C)c1cn2ccccc2c1S(=O)(=O)c1ccc(OCCCN2CCN(c3ccccc3)CC2)cc1`, for which the melting point fell in the range of 135 to 136 °C.

In turn, `CCCC[C@]1(CC)CS(=O)(=O)c2cc(OC)c(Br)cc2[C@@H](c2ccccc2)N1O` registered a melting point of 202 to 204 °C.

Compound `CC(=NC(=Nc1ccccc1)N1CCOCC1)NCc1ccccc1` yielded a melting point of 126 to 129 °C.

On to `CC(=O)Nc1nc2ccc(S(=O)(=O)n3c(COC(C)(C)C(=O)O)cc4cc(C(F)(F)F)ccc43)cc2s1`, for which the melting point fell in the range of 144 to 146 °C.

In turn, `COc1ccc(C)cc1NC(=O)Nc1ccc(C2=CCN(C(=O)Nc3cc(OCCO)ccc3Cl)CC2)cc1` registered a melting point of 139 to 142 °C.

In turn, `COc1ccc(-c2ccc3cc(CO)ccc3c2)cc1C12CC3CC(CC(C3)C1)C2` had a melting point of 169 to 171 °C.

Compound `N#Cc1ccccc1OCC(O)CN1CCN(c2ncccc2F)CC1` (centres undefined) gave a melting point of 68 to 70 °C.

`COc1ccc(Nc2nc(NC3CCCCCC3)nc(Oc3ccccc3I)n2)cc1Cl` had a melting point of 206 to 208 °C.

`Oc1ccc(CCn2ccn(C3CCc4ccccc4C3)c2=S)cc1O` (centres undefined) registered a melting point of 165 to 167 °C.

In the case of `CSc1ccc([N+](=O)[O-])cc1C(F)(F)F`, the melting point is 50 °C.

In the case of `Nn1ccn(C2CCc3ccccc3C2)c1=S` (centres undefined), the melting point fell in the range of 187 to 189 °C.

`CC(C)(C)C(=O)Nc1cc2c(O)n(I)cnc-2n1` registered a melting point greater than 240 °C.

Compound `COC1=C(OC)C(=O)C(CCCCCCCCCC(=O)N[C@@H](CCSC)C(=O)O)=C(C)C1=O` showed a melting point of 83 to 85 °C.

For `O=[N+]([O-])C=Cc1ccsc1`, the melting point is 94.5 to 96.5 °C.

In turn, `CN1CCCC1=NC(=O)Nc1ccc([N+](=O)[O-])cc1` showed a melting point of 180 to 182 °C.

The compound `COc1ccccc1Sc1c(O)nc(C)[nH]c1=O` had a melting point of 290 °C.

As to `COC(=O)COc1ccc(C(=O)CNC(=O)c2ccc(C#N)cc2)cc1`, the melting point lay within 200 to 203 °C.

`Cc1[nH]c2ncnc(Nc3cccc(Cl)c3)c2c1C`: the melting point lay within 239 to 240 °C.

In the case of `CC(=O)c1ccc(N2CCN(c3c(C)c(C)c4c(c3C)CC(C)(C)O4)CC2)cc1`, the melting point lay in the range of 192 to 196 °C.

Regarding `CN1CCN(c2nc(C=C3SC(=S)N(CC(=O)O)C3=O)cs2)CC1`, the melting point is greater than 300 °C.

With `CCOC(=O)CC(=O)c1ccnc(F)c1`, the melting point fell in the range of 66 to 67 °C.

Regarding `O=C(O)c1ccc(-c2ccc3cc(O)c(C45CC6CC(CC(C6)C4)C5)cc3c2)cc1`, the melting point is 295 to 300 °C.

`OCc1ccc(Nc2ccccc2)nc1` yielded a melting point of 119 to 122 °C.

Turning to `C1=C(CC2=NCCN2)CCc2ccccc21`, the melting point lay in the range of 221 to 223 °C.

Compound `COc1ccc(Br)c2c1C1C(=O)NC(=O)C1CC2` (centres undefined) had a melting point of 191 to 193 °C.

With `Cc1oc(-c2ccccc2)nc1COc1ccc(CON=C(CCCCC(N)=O)c2ccccc2)cc1`, the melting point lay in the range of 95 to 96 °C.

Regarding `CCCCCCCCOc1ccc2nc(C(=O)NCC(=O)O)c(O)cc2c1`, the melting point is 153 to 155 °C.

The compound `COCCOc1ccc2c(C3C(=O)Nc4ccccc43)ncnc2c1` (centres undefined) returned a melting point of 245 to 248 °C.

Turning to `C1=CC(CCC2c3ccccc3-c3ccccc32)c2ccccc21` (centres undefined), the melting point lay in the range of 79 to 80 °C.

`COC(=O)CCn1nnnc1C1N2C(=O)C(NC(c3ccccc3)(c3ccccc3)c3ccccc3)C2SC1(C)C` (centres undefined) registered a melting point of 94 to 98 °C.

The compound `C=CCSC1=C(C(=O)OCc2ccc([N+](=O)[O-])cc2)N2C(=O)[C@@H]([C@H](C)O)[C@H]2C1` displayed a melting point of 137 to 139 °C.

In turn, `CC(C)CN(C)c1ccccc1CS(=O)c1nc2ncccc2[nH]1` (centres undefined) registered a melting point of 116 to 118 °C.

The compound `CCCCCc1ccc(-c2c(C(C)C)ccc(CO)c2C(C)C)nc1` yielded a melting point of 81 to 82 °C.

On to `CC(CCCO)C1CCC2C3CCC4CC(O)CCC4(C)C3CC(O)C12C` (centres undefined), for which the melting point lay in the range of 110 to 116 °C.

`COc1ccccc1CN[C@H]1CCCN(CCCc2ccccc2)[C@H]1c1ccccc1` (relative stereo) showed a melting point of 120 to 125 °C.

For `CC(=O)N1N=C(c2ccc([N+](=O)[O-])cc2)c2cc(Br)ccc2CC1C` (centres undefined), the melting point is 228 to 230 °C.

The compound `CC(C)n1c2c(c3cccc(F)c31)C(=O)NCC2` gave a melting point of 183 to 184 °C.

On to `CN(C1CCN(CCCC(F)(F)F)CC1)S(=O)(=O)c1ccc(Nc2nccc(Nc3ccc(F)cc3)n2)cc1`, for which the melting point lay within 166 to 167 °C.

Take `OCCOc1ccc(C2=NCCO2)cc1`: the melting point lay within 149 to 150 °C.

Consider `O=C1NC(=O)C(Cc2ccc(NC(=O)c3cc(=O)c4cc(Br)ccc4o3)cc2)S1` (centres undefined), for which the melting point lay in the range of 281 to 285 °C.

`O=[N+]([O-])c1nc(CC(O)C2CO2)c[nH]1` (centres undefined): the melting point lay in the range of 90 to 92 °C.

Take `CC1(C)Oc2ccc(C#N)cc2C(Nn2ccccc2=O)C1(C)O` (centres undefined): the melting point was in the range of 184 to 187 °C.

Compound `O=C(O)Cc1ccc(CCN2CCNCC2)cc1` displayed a melting point of 238 to 239 °C.

In turn, `Nc1c(-c2ccc(Cl)cc2)nc2c(Cl)cc(Cl)cc2c1C(=O)O` gave a melting point of 260 to 261 °C.

`Cc1c(C(=O)c2cccnc2)sc2cc(Br)ccc12` came in with a melting point of 110 to 111 °C.

`COc1ccc(-c2nc(N)sc2CCN2CC=C(c3ccccc3)CC2)cc1` had a melting point of 163 °C.

For the compound `CCCc1nc(C=Cc2ccccc2)c(C(=O)O)n1Cc1cc2c(cc1Cl)OCO2`, the melting point was found to be 230 °C.

The compound `CNC(=O)CCn1ncccc1=O` showed a melting point of 94 to 96 °C.

As for `CC(C)c1ccc(N)nn1`, the melting point was 131 to 132 °C.

Turning to `O=C(O)Cc1cc(=O)n(Cc2ccc([N+](=O)[O-])cc2)c2ccccc12`, the melting point fell in the range of 208 to 210 °C.

`CCCCOc1ccc(S(=O)(=O)C2(C(=O)O)CCN(Cc3ccc(Cl)c(Cl)c3)CC2)cc1` came in with a melting point of 257 °C.

Compound `CC(C)(C)OC1CCC2(C)C(=CCC3C4CCC(=O)C4(C)CCC32)C1` (centres undefined) showed a melting point of 185 to 187 °C.

`O=C1Nc2cc(F)ccc2C1c1ncnc2nn(C3CCCCC3)cc12` (centres undefined) returned a melting point of 297 to 300 °C.

Turning to `Cc1nnc(SCCCC(=O)NC/C=C\COc2cc(CN3CCCCC3)ccn2)s1`, the melting point was in the range of 65 to 68 °C.

Turning to `OCC1OC(n2c(SCc3ccccc3)nc3cc(Cl)c(Cl)cc32)C(O)C1O` (centres undefined), the melting point lay within 196 to 198 °C.

As to `CC(C)(C)NC(=O)[C@@H]1C[C@@H]2CCCC[C@@H]2CN1C[C@H]1OC(=O)N[C@H]1Cc1ccccc1`, the melting point lay within 202 to 204 °C.

Consider `CC(=O)c1ccccc1NC(C(N)=O)c1c(Cl)cccc1Cl` (centres undefined), for which the melting point was determined as 169 °C.

Compound `O=C(CCCCCCCCC(=O)N(CCO)CCO)N(CCO)CCO` had a melting point of 87 to 98 °C.

Consider `Cc1ccccc1C(=O)CN1C(=O)C(NC(=O)Nc2cccc(C(=O)NS(C)(=O)=O)c2)CN(c2ccccc2)c2ccccc21` (centres undefined), for which the melting point fell in the range of 210 to 220 °C.

The compound `CC(C)Oc1cc(NNC(=N)C(F)(F)F)c(Cl)cc1Cl` gave a melting point of 80.5 to 81 °C.

Regarding `O=C(OCc1ccccc1)C1CC(=C2NC(=O)N(c3ccccc3)C2=O)c2ccc(Cl)cc2N1` (centres undefined), the melting point is greater than 220 °C.

For `O=C(O)CC(CNC(=O)C1Cc2ccccc2N1S(=O)(=O)c1ccc(-c2cccc(C(F)(F)F)c2)cc1)c1ccccc1` (centres undefined), the melting point was 90 °C.

In turn, `Cc1nc2c(C#N)c(C)nn2c(Cl)c1CCCl` returned a melting point of 113 to 115 °C.

The compound `O=C1Cc2cc(NC(=O)C(=O)N3CCC(Cc4ccc(F)cc4)CC3)ccc2N1` yielded a melting point of 152 to 154 °C.

`NS(=O)(=O)c1cc(C2CO2)ccc1F` (centres undefined) displayed a melting point of 100 to 103 °C.

In the case of `CC(C)(O)C(=O)c1ccc(F)cc1`, the melting point stood at 131 °C.

`COc1ccc2c(-c3ccccc3)c(C(=O)c3ccccc3)sc2c1` returned a melting point of 94 to 95.5 °C.

`O=C1NN=C(c2ccc3[nH]c(-c4ccncc4)cc3c2)CO1` came in with a melting point of 322 to 325 °C.
